From ChEMBL document CHEMBL1123047, “Quantitative evaluation of the beta 2-adrenoceptor affinity of phenoxypropanolamines and phenylethanolamines” (J Med Chem, 1985) come the findings set out here.

Broadly, the pKd is −log10 of the Kd, conventionally taken in molar units. What is called logP is the decadic logarithm of the partition coefficient of the neutral form, usually between octanol and water.

Series [1] addresses Beta-2 adrenergic receptor (Bos taurus) (UniProt Q28044).
Description: (§2) Affinity for cow beta-2 adrenergic receptor by measuring displacement (-)-[3H]dihydroalprenolol (DHA)
The target of series [2] is Beta-2 adrenergic receptor (Bos taurus, UniProt Q28044). The settings on record: read-out: Kd app.
Chain of Beta-2 adrenergic receptor (Q28044 whole entry): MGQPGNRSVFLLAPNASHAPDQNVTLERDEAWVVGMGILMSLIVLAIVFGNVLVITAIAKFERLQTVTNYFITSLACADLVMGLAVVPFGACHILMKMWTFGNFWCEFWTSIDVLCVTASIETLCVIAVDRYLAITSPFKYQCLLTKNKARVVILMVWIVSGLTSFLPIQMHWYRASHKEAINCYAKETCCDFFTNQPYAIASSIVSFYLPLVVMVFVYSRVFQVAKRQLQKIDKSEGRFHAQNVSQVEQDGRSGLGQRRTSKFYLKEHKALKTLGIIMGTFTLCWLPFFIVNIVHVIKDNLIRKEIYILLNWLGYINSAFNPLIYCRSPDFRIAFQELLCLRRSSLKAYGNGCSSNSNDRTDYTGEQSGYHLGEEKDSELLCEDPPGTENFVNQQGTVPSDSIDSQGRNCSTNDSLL
Description: as §2
Series [3] can be described thus: (§1) Partition coefficient (logP). The settings on record: octanol/water.
Series [4] is described as follows: as §1. The note with it: octanol/water. The format is physicochemical.

Molecules are shown by their SMILES. pKd: −log10 of the molar value.

Chain of Beta-2 adrenergic receptor (Bos taurus) (Q28044 whole entry, looked up): as the sequence (Q28044 whole entry) above

The molecule `Cc1cc(C)cc(OCC(O)CNC(C)C)c1` (centres undefined) displayed a -Log KD in series [1] of 8.29. Also, in series [2], the negative-log Kd (pKd) was 7.99.

The molecule `CC(C)NC[C@H](O)COc1ccc(O)cc1` [PRENALTEROL] registered a -Log KD in series [1] of 6.27. The pKd in series [2] was 5.97.

Take `CC(C)NCC(O)c1ccc(O)cc1` (centres undefined) [DETERENOL]: the pKd in series [2] was 5.37.

In series [1], `CC(C)NCC(O)c1ccc(O)c(CO)c1` (centres undefined) displayed a -Log KD of 5.8. Also, the negative logarithm of the Kd (pKd) in series [2] was 5.50.

In the case of `CC(C)(C)NCC(O)c1ccc(O)c(O)c1` (centres undefined) [COLTEROL], the -Log KD in series [1] is 6.55. In series [2], the negative-log Kd (pKd) is 6.22.

As to `CNc1cc(C(O)CNC(C)(C)C)ccc1O` (centres undefined), the pKd in series [2] was 6.28.

Molecule `CC(C)NCC(O)COc1ccccc1` (centres undefined) registered a -Log KD in series [1] of 7.57. Besides, the pKd in series [2] is 7.27.

`CC(C)(C)NCC(O)c1ccc(O)cc1` (centres undefined): the -Log KD in series [1] was found to be 6.2. Moreover, the pKd in series [2] was 5.90.

Consider `CC(C)NCC(O)c1ccc([N+](=O)[O-])cc1` (centres undefined) [NIFENALOL], for which the negative logarithm of the Kd (pKd) in series [2] is 5.88.

Consider `CCCc1ccccc1`, for which the lipophilicity (logP) in series [3] was 3.57.

For `CC(C)(C)NCC(O)c1ccccc1Cl` (centres undefined) [TULOBUTEROL], the pKd in series [2] was 6.89.

`CC(C)NCC(O)c1cccc(O)c1` (centres undefined) [METATEROL] registered a -Log KD in series [1] of 6.34. Besides, the pKd in series [2] is 6.04.

`OCc1ccccc1O` [SALICYL ALCOHOL]: the logP in series [3] was 0.73.

`Cc1ccccc1OCC(O)CNC(C)C` (centres undefined) gave a -Log KD in series [1] of 8.29. The negative logarithm of the Kd (pKd) in series [2] is 7.99.

Consider `CC(C)(C)NCC(O)c1cc(Cl)c(O)c(Cl)c1` (centres undefined), for which the -Log KD in series [1] came to 7.41. Moreover, the pKd in series [2] is 5.71.

The molecule `CC(C)(C)NCC(O)c1ccc(O)c(CO)c1` (centres undefined) had a -Log KD in series [1] of 6.58.

In the case of `CC(C)NCC(O)c1ccc(O)c(N)c1` (centres undefined), in series [1], the -Log KD was 5.59. For the same molecule, the negative logarithm of the Kd (pKd) in series [2] was 5.29.

`Nc1ccccc1O` [QUESTIOMYCIN B] returned a lipophilicity (logP) in series [3] of 0.52.

As to `Oc1cccc(O)c1` [RESORCINOL], in series [3], the logP amounted to 0.8.

On to `C#CCOc1ccccc1OCC(O)CNC(C)C` (centres undefined), for which the -Log KD in series [1] turned out to be 8.97. In series [2], the negative logarithm of the Kd (pKd) was 8.67.

The molecule `CC(C)NCC(O)c1ccc(NS(C)(=O)=O)cc1` (centres undefined) showed a -Log KD in series [1] of 6.57.

On to `CCC(C)c1cccc(OCC(O)CNC(C)C)c1` (centres undefined), for which the -Log KD in series [1] is 8.05. Further, the pKd in series [2] is 7.75.

Take `CC(C)(C)NCC(O)c1ccc(O)c(N)c1` (centres undefined): in series [1], the -Log KD stood at 5.99. The negative-log Kd (pKd) in series [2] is 5.69.

In series [1], `CC(C)NCC(O)c1cc(Cl)c(N)c(Cl)c1` (centres undefined) yielded a -Log KD of 7.54. For the same molecule, the pKd in series [2] was 7.24.

For the molecule `CC(C)(C)NCC(O)c1ccc(O)c(C(N)=O)c1` (centres undefined), in series [2], the negative logarithm of the Kd (pKd) was 6.33.

`Cc1cccc(OCC(O)CNC(C)C)c1` (centres undefined) [TOLIPROLOL] had a -Log KD in series [1] of 7.66. Further, the negative-log Kd (pKd) in series [2] is 7.36.

Take `NC(=O)c1ccccc1O` [SALICYLAMIDE]: in series [4], the logP is 1.28.

Regarding `CC(C)NCC(O)COc1ccccc1C#N` (centres undefined), in series [1], the -Log KD was found to be 7.96. Besides, in series [2], the pKd is 7.66.

Turning to `CC(C)NCC(O)COc1ccccc1CO` (centres undefined), the -Log KD in series [1] is 7.6. Besides, the pKd in series [2] is 7.30.

`CC(C)NCC(O)c1cc(O)cc(O)c1` (centres undefined) [METAPROTERENOL]: the negative-log Kd (pKd) in series [2] is 5.04.

The molecule `CC(C)NCC(O)COc1ccccc1C1CC1` (centres undefined) [PROCINOLOL] came in with a -Log KD in series [1] of 9.41. Further, in series [2], the pKd is 9.41.

The molecule `CC(C)(C)NCC(O)c1cc(O)cc(O)c1` (centres undefined) showed a -Log KD in series [1] of 5.73.

Regarding `CC(C)NCC(O)c1ccc2ccccc2c1` (centres undefined) [PRONETALOL], the -Log KD in series [1] turned out to be 7.1. Moreover, in series [2], the negative-log Kd (pKd) is 6.80.

On to `CCCc1ccccc1OCC(O)CNC(C)C` (centres undefined), for which the -Log KD in series [1] came to 9.2. For the same molecule, the pKd in series [2] was 9.20.
